Reference: ChEMBL document CHEMBL5614415, “Recent advances and challenges of revolutionizing drug-resistant tuberculosis treatment” (Eur J Med Chem, 2024)

Tested on: Mycobacterium tuberculosis variant bovis
Assay: Antimycobacterial activity against Mycobacterium bovis BCG ATCC 35734 assessed as bacterial growth inhibition incubated for 15 days by resazurin based reduction assay
Format: functional
Details: BCG ATCC 35734, 360 h, time 15 day

Q: For `COc1cc([C@](O)(CCN(C)C)[C@@H](c2cc3cc(Br)ccc3nc2OC)c2cccc(OC)c2F)cc(OC)n1` [TBAJ-587], which MIC50 is on record?
A: The MIC50 was less than 6 ng/mL.
